The values that follow are results of earlier work, collected in patent publication US20210316038A1, “ANTIBIOTIC ELUTING POLY(ESTER UREA) FILMS, MESHES AND POUCHES FOR INFECTION CONTROL OF IMPLANTABLE MEDICAL DEVICES” (The University of Akron, priority 2019, published 2021).

Structures are written as SMILES.

For `Cc1nnc(SCC2=C(C(=O)O)N3C(=O)[C@@H](NC(=O)Cn4cnnn4)[C@H]3SC2)s1` [Cefazolin], the solubility in water result is given as “Cefazolin has high solubility in water (>100 mg/ml”.
